PMC12748266, “Testing antimicrobial peptides inhibiting protein synthesis in living E. coli and K. pneumoniae using bio-orthogonal non-canonical amino-acid tagging” (Frontiers in Microbiology, 2025)
No end group written: not given here.

Test system: K. pneumoniae ribosomes
Experiment: In vitro translation assay (PURExpress, firefly luciferase) with purified ribosomes
Type: biochemical, K. pneumoniae ATCC 13883
Conditions: peptide at 5 μM, 30 min, 32 °C, luciferase luminescence, water control = 100%
Description: The ribosomes used in this study were purified as described previously ([Di Stasi et al., 2025]). Briefly, to purify the 70S ribosomes of ESKAPE pathogens, the bacterial strains E. faecium ATCC 19434 S. aureus ATCC 25923, K. pneumoniae ATCC 13883, A. baumannii ATCC 19606, P. aeruginosa ATCC 27853 and E. cloacae ATCC 13047 were grown in 2 L of Luria-Bertani (LB) medium, at 37 °C, until the mid-log phase was reached. After centrifugation at 7,000 rpm (12,000 × g) for 15 min at 20 °C (JLA rotor 8.1000), the bacterial pellet was resuspended in 50 mL of saline (0.9% w/v NaCl) and re-centrifuged at 15,000 rpm (27,000 × g) for 10 min at 20 °C (JA rotor 25.50). […] Finally, the solution was cleared of the last remaining impurities by centrifugation at 15,000 rpm (18,000 × g) for 15 min at 4 °C, and the ribosomes subjected to quantification by Nanodrop (A260). […]
The in vitro translation assay was performed by using the Δ ribosome from the E. coli PURExpress system New England Biolabs (NEB), as reported previously ([Di Stasi et al., 2025]; [Raulf et al., 2025]). […] Finally, 40 μL of luciferase assay substrate solution were added to the wells (Promega, E1501), and the luminescence measured using a plate reader (Tecan Infinite 200 PRO). The negative control of the test was nuclease-free water in place of the antibiotic, whose values were used to normalize the absolute luminescence values of the samples. […]

With RRIRPRPPRLPRPRPR [Bac7(1–16)] the “Inhibition of in vitro protein synthesis” value was 90%.
